Nine compounds from BindingDB's records for patent US20250011332 (Soter Biopharma, 2025) can be followed below.

The structures appear in SMILES notation.

The target in assay [1] is Tyrosine-protein kinase JAK2 (Homo sapiens, UniProt O60674). In words: Jak2 Kinase Activity Test In Vitro. The procedure:
JAK2(h) was incubated with 8 mM MOPS pH 7.0, 0.2 mM EDTA, 100 μM […] (SEQ ID NO: 2), 10 mM magnesium acetate, and [γ-33P]-ATP (activity and concentration were determined as required). The reaction was started by adding the Mg/ATP mixture, and after incubation at room temperature for 40 min, the reaction was terminated by adding 0.5% phosphoric acid. Then 10 μL of the reaction product was spotted on a P30 filter pad which was washed three times with 0.425% phosphoric acid and once with methanol within 4 min, dried, and subjected to scintillation counting.

Assay [2] concerns the target Tyrosine-protein kinase JAK1 (Homo sapiens, UniProt P23458). In words: Jak1 Kinase Activity Test In Vitro. The protocol:
JAK1(h) was incubated with 20 mM Tris/HCl pH 7.5, 0.2 mM EDTA, 500 μM MGEEPLYWSFPAKKK (SEQ ID NO: 1), 10 mM magnesium acetate and [γ-33P]-ATP (activity and concentration were determined as required). The reaction was started by adding the Mg/ATP mixture, and after incubation at room temperature for 40 min, the reaction was terminated by adding 0.5% phosphoric acid. Then 10 μL of the reaction product was spotted on a P30 filter pad which was washed three times with 0.425% phosphoric acid and once with methanol within 4 min, dried, and subjected to scintillation counting.

Assay [3] concerns the target Non-receptor tyrosine-protein kinase TYK2 (Homo sapiens, UniProt P29597). The assay can be described thus: TYK2 Kinase Activity Test In Vitro. The procedure: TYK2(h) was incubated with 8 mM MOPS pH 7.0, 0.2 mM EDTA, 250 μM GGMEDIYFEFMGGKKK (SEQ ID NO: 4), 10 mM magnesium acetate, and [γ-33P]-ATP (activity and concentration were determined as required). The reaction was started by adding the Mg/ATP mixture, and after incubation at room temperature for 40 min, the reaction was terminated by adding 0.5% phosphoric acid. Then 10 μL of the reaction product was spotted on a P30 filter pad which was washed three times with 0.425% phosphoric acid and once with methanol within 4 min, dried, and subjected to scintillation counting.

Assay [4] has as its target T1, Tyrosine-protein kinase JAK3 (Homo sapiens, UniProt P52333).
T1 sequence (P52333 whole entry): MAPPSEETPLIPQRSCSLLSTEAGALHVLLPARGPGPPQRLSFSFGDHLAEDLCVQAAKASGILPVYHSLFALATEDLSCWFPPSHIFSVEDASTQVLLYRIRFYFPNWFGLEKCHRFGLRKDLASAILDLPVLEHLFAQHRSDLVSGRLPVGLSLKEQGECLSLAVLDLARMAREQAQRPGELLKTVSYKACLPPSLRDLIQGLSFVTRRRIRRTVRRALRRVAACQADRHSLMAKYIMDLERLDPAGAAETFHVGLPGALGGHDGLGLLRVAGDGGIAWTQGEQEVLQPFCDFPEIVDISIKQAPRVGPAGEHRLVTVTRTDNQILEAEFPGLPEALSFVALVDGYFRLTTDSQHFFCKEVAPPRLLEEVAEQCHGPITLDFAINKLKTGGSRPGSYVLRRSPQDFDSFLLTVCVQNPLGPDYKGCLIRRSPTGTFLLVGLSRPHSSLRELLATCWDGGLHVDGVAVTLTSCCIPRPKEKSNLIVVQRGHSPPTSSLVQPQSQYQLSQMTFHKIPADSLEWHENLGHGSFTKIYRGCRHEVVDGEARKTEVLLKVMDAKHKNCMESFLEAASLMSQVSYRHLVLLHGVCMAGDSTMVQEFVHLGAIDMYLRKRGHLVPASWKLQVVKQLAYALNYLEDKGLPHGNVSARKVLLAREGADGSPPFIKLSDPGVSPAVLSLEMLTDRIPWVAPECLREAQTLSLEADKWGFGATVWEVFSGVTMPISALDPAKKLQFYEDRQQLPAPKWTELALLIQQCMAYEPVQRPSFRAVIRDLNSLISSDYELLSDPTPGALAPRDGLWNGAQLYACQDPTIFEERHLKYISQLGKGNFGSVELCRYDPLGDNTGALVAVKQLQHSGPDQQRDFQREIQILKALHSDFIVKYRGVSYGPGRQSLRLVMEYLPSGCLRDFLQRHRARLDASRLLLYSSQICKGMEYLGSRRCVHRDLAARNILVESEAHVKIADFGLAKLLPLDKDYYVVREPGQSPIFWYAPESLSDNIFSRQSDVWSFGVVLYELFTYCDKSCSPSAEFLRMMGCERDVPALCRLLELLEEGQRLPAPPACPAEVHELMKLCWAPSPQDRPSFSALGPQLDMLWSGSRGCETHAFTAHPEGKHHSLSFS
The assay can be described thus: Jak3 Kinase Activity Test In Vitro. The procedure:
JAK3(h) was incubated with 8 mM MOPS pH 7.0, 0.2 mM EDTA, 500 μM GGEEEEYFELVKKKK (SEQ ID NO: 3), 10 mM magnesium acetate, and [γ-33P]-ATP (activity and concentration were determined as required). The reaction was started by adding the Mg/ATP mixture, and after incubation at room temperature for 40 min, the reaction was terminated by adding 0.5% phosphoric acid. Then 10 μL of the reaction product was spotted on a P30 filter pad which was washed three times with 0.425% phosphoric acid and once with methanol within 4 min, dried, and subjected to scintillation counting.

Tyrosine-protein kinase JAK1, sequence (P23458 whole entry): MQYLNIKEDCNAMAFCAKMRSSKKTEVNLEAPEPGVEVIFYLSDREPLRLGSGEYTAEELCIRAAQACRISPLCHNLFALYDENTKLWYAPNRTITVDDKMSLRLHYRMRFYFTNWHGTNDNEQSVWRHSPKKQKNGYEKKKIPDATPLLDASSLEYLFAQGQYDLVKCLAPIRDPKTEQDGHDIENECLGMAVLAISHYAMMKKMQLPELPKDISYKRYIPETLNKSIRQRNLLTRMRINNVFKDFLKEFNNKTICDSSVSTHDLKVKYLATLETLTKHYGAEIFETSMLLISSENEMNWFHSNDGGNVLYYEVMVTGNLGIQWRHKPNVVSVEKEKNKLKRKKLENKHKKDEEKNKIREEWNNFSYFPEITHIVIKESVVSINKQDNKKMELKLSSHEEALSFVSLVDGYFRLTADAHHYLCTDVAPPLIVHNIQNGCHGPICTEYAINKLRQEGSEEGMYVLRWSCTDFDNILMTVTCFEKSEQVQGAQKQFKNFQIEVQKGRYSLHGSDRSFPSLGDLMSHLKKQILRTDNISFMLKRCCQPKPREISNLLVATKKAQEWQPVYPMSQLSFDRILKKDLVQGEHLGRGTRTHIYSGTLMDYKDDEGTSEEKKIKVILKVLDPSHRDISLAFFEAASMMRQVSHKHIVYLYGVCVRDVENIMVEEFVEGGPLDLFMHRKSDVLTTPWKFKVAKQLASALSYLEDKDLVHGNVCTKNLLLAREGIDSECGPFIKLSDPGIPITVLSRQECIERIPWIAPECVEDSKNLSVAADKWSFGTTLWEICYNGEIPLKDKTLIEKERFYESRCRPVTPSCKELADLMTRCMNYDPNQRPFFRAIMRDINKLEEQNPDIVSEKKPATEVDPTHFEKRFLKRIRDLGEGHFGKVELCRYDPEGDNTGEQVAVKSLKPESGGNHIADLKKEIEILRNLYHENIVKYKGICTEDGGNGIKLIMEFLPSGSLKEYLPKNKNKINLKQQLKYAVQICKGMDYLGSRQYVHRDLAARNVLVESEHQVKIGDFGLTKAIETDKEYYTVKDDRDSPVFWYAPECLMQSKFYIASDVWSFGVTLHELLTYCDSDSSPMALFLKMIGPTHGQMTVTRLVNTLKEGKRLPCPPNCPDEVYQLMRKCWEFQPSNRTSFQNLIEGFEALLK
Tyrosine-protein kinase JAK2, sequence (O60674 whole entry): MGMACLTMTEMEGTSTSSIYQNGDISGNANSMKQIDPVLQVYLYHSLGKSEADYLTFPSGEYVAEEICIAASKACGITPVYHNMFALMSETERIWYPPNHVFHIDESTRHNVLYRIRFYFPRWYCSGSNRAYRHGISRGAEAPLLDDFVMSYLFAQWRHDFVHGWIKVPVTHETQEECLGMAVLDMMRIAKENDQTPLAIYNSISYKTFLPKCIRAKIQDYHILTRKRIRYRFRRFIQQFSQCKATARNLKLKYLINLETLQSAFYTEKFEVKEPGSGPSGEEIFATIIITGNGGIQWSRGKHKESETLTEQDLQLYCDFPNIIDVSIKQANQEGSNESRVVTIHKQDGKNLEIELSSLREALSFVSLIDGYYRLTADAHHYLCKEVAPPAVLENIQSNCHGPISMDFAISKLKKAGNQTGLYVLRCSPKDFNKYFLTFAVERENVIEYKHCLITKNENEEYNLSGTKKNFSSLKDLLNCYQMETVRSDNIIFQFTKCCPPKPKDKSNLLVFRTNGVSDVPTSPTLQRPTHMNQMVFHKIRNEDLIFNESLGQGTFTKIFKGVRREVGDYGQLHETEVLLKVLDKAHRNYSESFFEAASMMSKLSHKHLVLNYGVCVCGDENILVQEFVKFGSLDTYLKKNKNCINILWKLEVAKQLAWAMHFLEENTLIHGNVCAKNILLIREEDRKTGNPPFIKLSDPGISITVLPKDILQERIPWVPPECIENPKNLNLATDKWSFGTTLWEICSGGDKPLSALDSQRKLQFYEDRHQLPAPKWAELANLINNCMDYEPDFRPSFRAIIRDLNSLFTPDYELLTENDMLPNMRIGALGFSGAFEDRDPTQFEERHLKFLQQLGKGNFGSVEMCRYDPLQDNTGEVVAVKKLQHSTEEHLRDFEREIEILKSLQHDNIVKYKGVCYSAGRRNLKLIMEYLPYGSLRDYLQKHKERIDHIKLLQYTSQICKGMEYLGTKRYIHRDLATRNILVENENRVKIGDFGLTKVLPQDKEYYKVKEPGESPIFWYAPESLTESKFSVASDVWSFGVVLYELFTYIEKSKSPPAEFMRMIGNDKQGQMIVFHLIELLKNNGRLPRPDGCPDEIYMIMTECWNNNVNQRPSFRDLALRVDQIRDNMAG
Non-receptor tyrosine-protein kinase TYK2, sequence (P29597 whole entry): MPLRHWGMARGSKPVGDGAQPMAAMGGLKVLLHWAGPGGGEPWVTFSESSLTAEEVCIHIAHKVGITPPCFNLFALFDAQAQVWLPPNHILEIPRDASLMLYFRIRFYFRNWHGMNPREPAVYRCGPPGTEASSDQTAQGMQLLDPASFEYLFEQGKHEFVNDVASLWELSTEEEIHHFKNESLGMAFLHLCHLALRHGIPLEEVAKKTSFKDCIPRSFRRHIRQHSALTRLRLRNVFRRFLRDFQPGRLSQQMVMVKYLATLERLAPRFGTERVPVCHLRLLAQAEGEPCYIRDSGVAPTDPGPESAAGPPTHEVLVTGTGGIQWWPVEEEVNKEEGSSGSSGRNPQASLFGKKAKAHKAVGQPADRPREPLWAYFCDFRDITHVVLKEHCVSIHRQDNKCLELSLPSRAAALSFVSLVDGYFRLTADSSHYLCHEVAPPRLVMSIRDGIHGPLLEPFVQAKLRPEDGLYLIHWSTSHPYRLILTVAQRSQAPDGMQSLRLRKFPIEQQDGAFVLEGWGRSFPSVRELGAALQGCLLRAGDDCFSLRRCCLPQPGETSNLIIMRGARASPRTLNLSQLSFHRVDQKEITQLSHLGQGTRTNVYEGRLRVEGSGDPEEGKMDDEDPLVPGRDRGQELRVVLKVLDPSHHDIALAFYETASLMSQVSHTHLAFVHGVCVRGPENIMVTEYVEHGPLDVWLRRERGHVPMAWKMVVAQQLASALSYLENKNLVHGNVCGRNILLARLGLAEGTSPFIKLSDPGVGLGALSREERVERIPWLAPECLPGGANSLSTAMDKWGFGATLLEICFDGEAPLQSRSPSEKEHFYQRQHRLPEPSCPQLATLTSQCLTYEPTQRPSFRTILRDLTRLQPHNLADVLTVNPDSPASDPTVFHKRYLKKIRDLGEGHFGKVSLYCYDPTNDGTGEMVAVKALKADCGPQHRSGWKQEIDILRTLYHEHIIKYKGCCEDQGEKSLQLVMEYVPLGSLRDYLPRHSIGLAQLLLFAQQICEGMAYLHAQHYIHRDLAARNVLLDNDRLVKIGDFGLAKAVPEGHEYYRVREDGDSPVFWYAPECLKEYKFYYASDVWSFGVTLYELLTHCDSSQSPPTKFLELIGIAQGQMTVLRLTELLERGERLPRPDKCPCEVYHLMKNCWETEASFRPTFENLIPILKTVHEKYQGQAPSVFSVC

One may read the IC50 as the concentration that gives 50% inhibition. A higher IC50 goes with weaker potency in that assay. Take `Cn1ccc(-c2cn3nccc3c(-c3cnn(C4(CC#N)CC5(CCN(C#N)C5)C4)c3)n2)n1` (centres undefined) [US20250011332, Compound 10]: the IC50 in assay [1] was 33 nM; in assay [2] it was 281 nM; in assay [3], 30 nM; in assay [4] it was ≥ 10000 nM.

Consider `Cn1cc(-c2cc(-c3cnn([C@]4(CC#N)CC5(C[C@H](C#N)C5)C4)c3)c3ccnn3c2)cn1` (some centres undefined) [US20250011332, Compound 17], for which the IC50 in assay [1] is 28 nM; in assay [2], 229 nM; in assay [4], > 1000 nM.

Turning to `Cn1cc(-c2cn3nccc3c(-c3cnn([C@]4(CC#N)CC5(C[C@@H](C#N)C5)C4)c3)n2)cn1` (some centres undefined) [US20250011332, Compound 4], half-maximal inhibition in assay [3] (IC50) required 20 nM.

As to `Cn1ccc(-c2cn3nccc3c(-c3cnn([C@]4(CC#N)CC5(CC[C@@H](C#N)CC5)C4)c3)n2)n1` (some centres undefined) [US20250011332, Compound 13], the IC50 stood at 103 nM in assay [1], 233 nM in assay [2], 10 nM in assay [3] and 1080 nM in assay [4].

`Cn1cc(-c2cn3nccc3c(-c3cnn([C@]4(CC#N)CC5(C[C@@H](C#N)C5)C4)c3)n2)cn1` (some centres undefined) [US20250011332, Compound 2]: the results for the IC50 in assay [2], in assay [3] and in assay [4] were 123 nM, 2 nM and 480 nM, respectively.

In the case of `Cn1ncc(-c2cn3nccc3c(-c3cnn([C@]4(CC#N)CC5(C[C@H](C#N)C5)C4)c3)n2)c1N` (some centres undefined) [US20250011332, Compound 19], the 50% inhibitory concentration (IC50) came out at 6 nM in assay [1], 42 nM in assay [2], 2 nM in assay [3] and 670 nM in assay [4].

Regarding `N#CC[C@]1(n2cc(-c3nc(-c4cc(N)[nH]n4)cn4nccc34)cn2)CC2(C[C@@H](C#N)C2)C1` (some centres undefined) [US20250011332, Compound 20], the half-inhibitory concentration (IC50) in assay [2] was 14 nM; in assay [3] it was 1 nM; in assay [4], 480 nM.

In the case of `Cn1ccc(-c2cn3nccc3c(-c3cnn([C@]4(CC#N)CC5(CC[C@@H](C#N)CC5)C4)c3)n2)n1` (some centres undefined) [US20250011332, Compound 12], the half-inhibitory concentration (IC50) in assay [1] is 138 nM; in assay [2] it was 122 nM; in assay [3], 6 nM; in assay [4], 7740 nM.

As to `Cn1ncc(-c2cn3nccc3c(-c3cnn([C@]4(CC#N)CC5(C[C@H](C#N)C5)C4)c3)n2)c1N` (some centres undefined) [US20250011332, Compound 18], the 50% inhibitory concentration (IC50) in assay [1] was 3 nM; in assay [2], 12 nM; in assay [4] it was 93 nM.
